Holding throughout (type): binding
Test [1] deals with T1, PTAFR (Homo sapiens, UniProt P25105).
T1 construct: purchased Promega (in-house HiBiT-GPCR construct library, NanoBRET)
Kind of test: NanoBRET screen HiBiT-PTAFR in HEK293. On the procedure:
(§1) Each tracer candidate was screened across the entire library of HiBiT-GPCR constructs using NanoBRET as the detection modality. As depicted in Figure 4A, the specificity of interactions was evaluated through decrease in BRET due to competitive displacement of a bound tracer by excess parental compound. Each tracer was analyzed for binding to each HiBiT-GPCR fusion in the absence and in the presence of competing parental compound. Briefly, HEK293 cells were transfected with HiBiT-GPCR constructs diluted into promoterless DNA to reduce expression and maximize translocation to the cell surface. Each tracer candidate was then screened at concentrations of 1 μM and 0.1 μM across cells expressing these fusions. Cells were treated for 1.5 h with tracer either alone or in the presence of 20 μM competing parental compound (i.e., control). BRET was measured upon addition of purified LgBiT and subsequent complementation with HiBiT genetically fused to a GPCR. The specificity of interactions was assessed through a decrease in BRET signal due to competitive displacement of the bound tracer. To further gauge the robustness of these interactions, the fold response over the control (i.e., BRETtracer/BRETcontrol) was calculated. We chose a 1.5-fold response, which translates to ≥7-fold signal over noise as the minimal threshold required to score an interaction as positive. […]. Below we highlight the screening results obtained for our exemplary fluorescent tracers based on Clozapine, Amitriptyline and AZD1283.
(§2) HiBiT-GPCR DNA constructs were diluted in 10 mM Tris pH 8 to a final concentration of 0.01 μg/μL, arrayed in 96-well plates and stored at −20 °C. For transfection, HEK293 cells were suspended in Opti-MEM (without phenol red) supplemented with 2% fetal bovine serum (Seradigm) and 100 units/mL penicillin–streptomycin (Gibco) at a final concentration of 220,000 cells/mL and dispensed into white 96-well plates at 90 μL/well. Subsequent transfections and screens were carried using an Agilent Bravo Automated Liquid Handling Platform. First, the 96-well HiBiT DNA arrays were diluted 25-fold in Opti-MEM (without serum or phenol red) to a final concentration of 0.0004 μg/μL and 20 μL of the diluted DNAs were transferred into new 96-well plates. Next, promoterless carrier DNA (1 μg/μL) was diluted 25-fold (0.04 μg/μL) and then dispensed into the diluted arrays at 20 μL/well. Following brief mixing, Viafect transfection reagent (Promega) diluted 16-fold into Opti-MEM was dispensed into the plates at 40 μL/well. After mixing by pipetting, plates were incubated for 10 min on the pipetting station deck. The DNA-transfection reagent complexes were then added to plates containing cells. To facilitate the screen, 10 μL of DNA-transfection reagent complexes were added in duplicates to the top 4 and bottom 4 rows, resulting in two identical 48-well arrays per plate. Plates with transfected cells were incubated for 18–20 h at 37 °C/5% CO2. A screen of each tracer across the entire library using two different concentrations requires duplicate plates of transfected cells. Depending on the number of tracers being screened, transfections can be scaled up using the same ratios. The next day, for each tracer, four 20× screening solutions in tracer dilution buffer (Promega) were prepared: two duplicates at final concentration of 20 μM and two duplicates at a final concentration of 2 μM. A competing unmodified compound was added to one of each duplicate at a final concentration of 400 μM. The four resulting solutions were diluted 4-fold in Opti-MEM without serum or phenol red to generate 5× solutions (5 µM and 0.5 µM tracer +/− 100 μM competing compound). To screen the library, a BioTek MultiFlo FX liquid dispenser was used to dispense 22.5 µL of tracer solution to the top 4 rows and 22.5 µL tracer + competing compound solution to the 4 bottom rows. Plates were briefly mixed on an orbital shaker and incubated for 1.5 h at room temperature. […]
A general note: In BRET a luciferase serves as donor, and the signal depends on an acceptor being close.

For test [2], the target named is T2, FZD6 (Homo sapiens, UniProt O60353).
T2 construct: purchased Promega (in-house HiBiT-GPCR construct library, NanoBRET)
T2 sequence (O60353 19-706): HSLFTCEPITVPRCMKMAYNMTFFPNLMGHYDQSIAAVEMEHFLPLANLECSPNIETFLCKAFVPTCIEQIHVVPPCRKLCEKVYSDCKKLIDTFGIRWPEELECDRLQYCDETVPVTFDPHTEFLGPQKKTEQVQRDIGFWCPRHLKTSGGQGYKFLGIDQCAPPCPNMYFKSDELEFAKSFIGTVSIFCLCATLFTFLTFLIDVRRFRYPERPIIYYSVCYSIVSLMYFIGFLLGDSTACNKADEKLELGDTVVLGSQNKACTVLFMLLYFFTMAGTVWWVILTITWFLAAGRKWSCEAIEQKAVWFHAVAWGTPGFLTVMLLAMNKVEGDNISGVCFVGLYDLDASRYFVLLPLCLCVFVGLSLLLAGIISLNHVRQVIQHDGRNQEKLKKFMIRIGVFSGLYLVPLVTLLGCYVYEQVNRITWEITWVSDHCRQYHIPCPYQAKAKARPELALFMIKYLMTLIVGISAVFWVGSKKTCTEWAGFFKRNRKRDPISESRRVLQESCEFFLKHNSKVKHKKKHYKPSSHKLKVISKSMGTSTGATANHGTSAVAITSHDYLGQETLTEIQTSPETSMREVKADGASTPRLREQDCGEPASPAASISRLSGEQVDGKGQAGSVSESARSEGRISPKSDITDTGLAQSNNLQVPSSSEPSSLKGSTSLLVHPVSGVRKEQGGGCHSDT
Kind of test: NanoBRET screen HiBiT-FZD6 in HEK293. On the procedure: as §1, §2

The target in test [3] is T3, HRH4 (Homo sapiens, UniProt Q9H3N8).
T3 construct: purchased Promega (in-house HiBiT-GPCR construct library, NanoBRET)
Kind of test: NanoBRET screen HiBiT-HRH4 in HEK293. On the procedure:
as §1, §2

T1 sequence (P25105 whole entry): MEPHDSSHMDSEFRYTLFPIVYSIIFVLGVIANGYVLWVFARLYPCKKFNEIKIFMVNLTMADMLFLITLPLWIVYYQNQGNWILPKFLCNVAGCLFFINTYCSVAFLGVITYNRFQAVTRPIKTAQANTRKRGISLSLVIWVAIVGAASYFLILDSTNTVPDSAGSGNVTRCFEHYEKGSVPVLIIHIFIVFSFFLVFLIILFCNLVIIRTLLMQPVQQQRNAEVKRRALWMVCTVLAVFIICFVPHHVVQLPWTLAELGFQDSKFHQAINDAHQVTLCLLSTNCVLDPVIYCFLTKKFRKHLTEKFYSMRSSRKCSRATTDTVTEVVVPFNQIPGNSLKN
T3 sequence (Q9H3N8 whole entry): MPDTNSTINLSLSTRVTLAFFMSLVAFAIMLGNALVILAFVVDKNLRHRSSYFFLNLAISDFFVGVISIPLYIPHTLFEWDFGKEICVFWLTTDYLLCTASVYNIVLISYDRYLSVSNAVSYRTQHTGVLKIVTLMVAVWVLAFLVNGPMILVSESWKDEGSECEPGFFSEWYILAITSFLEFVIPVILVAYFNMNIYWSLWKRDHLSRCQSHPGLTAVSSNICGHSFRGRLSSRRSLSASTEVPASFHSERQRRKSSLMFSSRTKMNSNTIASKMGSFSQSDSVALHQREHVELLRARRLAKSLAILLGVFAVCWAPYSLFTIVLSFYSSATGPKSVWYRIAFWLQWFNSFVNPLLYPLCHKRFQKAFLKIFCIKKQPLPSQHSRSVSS

For `COc1ccc2c(n1)c(CCNC(C)=O)cn2CCNC(=O)CCc1ccc2n1[B-](F)(F)[N+]1=C(c3ccc[nH]3)C=CC1=C2` [Azamelatonin-1-NB590], the “NanoBRET Fold Response” value worked out at 1.05 in test [1] (0.1μM tracer); 1.05 in test [1] (1μM tracer); 1.09 in test [2] (0.1μM tracer); 0.86 in test [2] (1μM tracer); 0.92 in test [3] (0.1μM tracer); 0.92 in test [3] (1μM tracer).
Consider `CC(C)N(CC[C@H](c1ccccc1)c1cc(CCNC(=O)c2ccc(CNC(=O)CCc3ccc4n3[B-](F)(F)[N+]3=C(c5ccc[nH]5)C=CC3=C4)cc2)ccc1O)C(C)C` [Tolterodine-BZ-NB590], for which the “NanoBRET Fold Response” value is listed as 0.93 in test [1] (PTAFR, tracer 0.1μM); 0.85 in test [1] (PTAFR, tracer 1μM); 0.97 in test [2] (FZD6, tracer 0.1μM); 1.04 in test [2] (FZD6, tracer 1μM); 0.82 in test [3] (HRH4, tracer 0.1μM); 0.88 in test [3] (HRH4, tracer 1μM).
`O=C(CCc1ccc2n1[B-](F)(F)[N+]1=C(c3ccc[nH]3)C=CC1=C2)NCCOCCOCCNC(=O)OCCOCCN1CCN(C2=Nc3ccccc3Sc3ccccc32)CC1` [Quetiapine-a-2-NB590]: the “NanoBRET Fold Response” value in test [1] (PTAFR, tracer 0.1μM) is reported as 1.05; in test [1] (PTAFR, tracer 1μM) it was 1.13; in test [2] (FZD6, tracer 0.1μM), 1.01; in test [2] (FZD6, tracer 1μM), 1.15; in test [3] (HRH4, tracer 0.1μM), 1.01; in test [3] (HRH4, tracer 1μM), 0.96.
For `Cc1cc2c(s1)Nc1ccccc1N=C2N1CCN(CCCNC(=O)CCOCCOCCOCCOCCNC(=O)CCc2ccc3n2[B-](F)(F)[N+]2=C(c4ccc[nH]4)C=CC2=C3)CC1` [Olanzapine-a-2-NB590], the “NanoBRET Fold Response” value in test [1] (PTAFR, tracer 0.1μM) amounted to 1.00; in test [1] (PTAFR, tracer 1μM) it was 0.99; in test [2] (FZD6, tracer 0.1μM) it was 1.03; in test [2] (FZD6, tracer 1μM), 0.98; in test [3] (HRH4, tracer 0.1μM), 1.01; in test [3] (HRH4, tracer 1μM) it was 0.94.
In the case of `O=C(CCc1ccc2n1[B-](F)(F)[N+]1=C(c3ccc[nH]3)C=CC1=C2)NCc1ccc(C(=O)NCCOCCOCCNCC(O)COc2cccc3ccccc23)cc1` (stereo not drawn) [Propranolol-3-NB590], the “NanoBRET Fold Response” value in test [1] (PTAFR, 0.1μM) is recorded as 1.02; in test [1] (PTAFR, 1μM), 1.04; in test [2] (FZD6, 0.1μM), 1.06; in test [2] (FZD6, 1μM), 1.01; in test [3] (HRH4, 0.1μM) it was 0.92; in test [3] (HRH4, 1μM), 0.97.
As for `CN1CCN(C2=Nc3cc(Cl)ccc3N(CC(=O)NCCOCCOCCOCCOCCNC(=O)CCc3ccc4n3[B-](F)(F)[N+]3=C(c5ccc[nH]5)C=CC3=C4)c3ccccc32)CC1` [Clozapine-c-2-NB590], the “NanoBRET Fold Response” value in test [1] (PTAFR, 0.1μM tracer) worked out at 1.01; in test [1] (PTAFR, 1μM tracer), 1.02; in test [2] (FZD6, 0.1μM tracer), 1.01; in test [2] (FZD6, 1μM tracer), 1.04; in test [3] (HRH4, 0.1μM tracer) it was 1.04; in test [3] (HRH4, 1μM tracer), 0.97.
As for `O=C(CCc1ccc2n1[B-](F)(F)[N+]1=C(c3ccc[nH]3)C=CC1=C2)NCc1ccc(C(=O)NCCOCCC(=O)N[C@@H]2CC[C@@]3(O)[C@H]4Cc5ccc(O)c6c5[C@@]3(CCN4CC3CC3)[C@H]2O6)cc1` [Naltrexone-3-NB590], the “NanoBRET Fold Response” value in test [1] (PTAFR, tracer 0.1μM) was found to be 1.24; in test [1] (PTAFR, tracer 1μM), 0.78; in test [2] (FZD6, tracer 0.1μM), 0.94; in test [2] (FZD6, tracer 1μM), 1.10; in test [3] (HRH4, tracer 0.1μM), 0.75; in test [3] (HRH4, tracer 1μM), 0.91.
With `CC(C)N(CC[C@H](c1ccccc1)c1cc(CCNC(=O)CCOCCOCCOCCOCCNC(=O)CCc2ccc3n2[B-](F)(F)[N+]2=C(c4ccc[nH]4)C=CC2=C3)ccc1O)C(C)C` [Tolterodine-2-NB590], the “NanoBRET Fold Response” value in test [1] (PTAFR, tracer 0.1μM) was 1.17; in test [1] (PTAFR, tracer 1μM) it was 0.73; in test [2] (FZD6, tracer 0.1μM), 0.83; in test [2] (FZD6, tracer 1μM), 0.88; in test [3] (HRH4, tracer 0.1μM), 1.05; in test [3] (HRH4, tracer 1μM), 1.03.
With `Cc1nc2n(c(=O)c1CCN1CCC(c3noc4cc(F)ccc34)CC1)CCCC2OC(=O)NCCOCCOCCOCCOCCNC(=O)CCc1ccc2n1[B-](F)(F)[N+]1=C(c3ccc[nH]3)C=CC1=C2` (stereo not drawn) [Risperidone-2-NB590], the “NanoBRET Fold Response” value in test [1] (PTAFR, tracer 0.1μM) came out at 1.00; in test [1] (PTAFR, tracer 1μM), 1.10; in test [2] (FZD6, tracer 0.1μM), 1.01; in test [2] (FZD6, tracer 1μM), 1.10; in test [3] (HRH4, tracer 0.1μM) it was 1.03; in test [3] (HRH4, tracer 1μM), 1.07.
Take `O=C(CCOCCOCCOCCOCCNC(=O)CCc1ccc2n1[B-](F)(F)[N+]1=C(c3ccc[nH]3)C=CC1=C2)NCCCN1CCN(C2=Nc3cc(Cl)ccc3Nc3ccccc32)CC1` [Clozapine-a-2-NB590]: the “NanoBRET Fold Response” value in test [1] (PTAFR, 0.1μM tracer) is listed as 1.01; in test [1] (PTAFR, 1μM tracer) it was 0.99; in test [2] (FZD6, 0.1μM tracer), 0.99; in test [2] (FZD6, 1μM tracer) it was 0.93; in test [3] (HRH4, 0.1μM tracer), 1.00; in test [3] (HRH4, 1μM tracer) it was 1.07.
As to `COc1ccc2[nH]c(-c3ccc(CNC(=O)CCOCCOCCOCCOCCNC(=O)CCc4ccc5n4[B-](F)(F)[N+]4=C(c6ccc[nH]6)C=CC4=C5)cc3)c(CCNC(C)=O)c2n1` [AzomelatoninICO9-2-NB590], the “NanoBRET Fold Response” value in test [1] (0.1μM tracer) came out at 1.01; in test [1] (1μM tracer), 0.99; in test [2] (0.1μM tracer), 1.12; in test [2] (1μM tracer) it was 0.94; in test [3] (0.1μM tracer) it was 0.80; in test [3] (1μM tracer) it was 1.14.
For the compound `CN1CCN(C2=Nc3cc(Cl)ccc3Nc3ccc(CNC(=O)CCOCCOCCOCCOCCNC(=O)CCc4ccc5n4[B-](F)(F)[N+]4=C(c6ccc[nH]6)C=CC4=C5)cc32)CC1` [Clozapine-b-2-NB590], the “NanoBRET Fold Response” value in test [1] (PTAFR, 0.1μM tracer) is reported as 1.01; in test [1] (PTAFR, 1μM tracer) it was 1.14; in test [2] (FZD6, 0.1μM tracer), 1.03; in test [2] (FZD6, 1μM tracer), 1.04; in test [3] (HRH4, 0.1μM tracer), 1.01; in test [3] (HRH4, 1μM tracer), 0.81.

The values are drawn from paper PMC8151276, “An Integrated Approach toward NanoBRET Tracers for Analysis of GPCR Ligand Engagement” (Molecules, 2021).
